Tests used:
Assay type in all cases: biochemical
B-Raf V600E = target: T1, B-Raf V600E (Homo sapiens, UniProt P15056, V600E); test: AlphaScreen kinase assay, B-Raf V600E; conditions: read-out: IC50, activity toward kinase B-Raf V600E
T1 construct: P4254. pFastBacBD-CDC37 BRAF D437-K722-X, V600E; His6 with pFastBac HT leader (TEV site) (N); made in house; host or cells: Sf9 (baculovirus; chaperone CDC37 co-expressed)

Ret = target: T2, Ret (Homo sapiens, UniProt P07949); test: AlphaScreen kinase assay, Ret; conditions: read-out: IC50, activity toward kinase Ret
T2 construct: P1378.pET-SF BI-PTP RET H661-R1012 HIS; made in house
T2 sequence (P07949 with tags, fused parts or gaps): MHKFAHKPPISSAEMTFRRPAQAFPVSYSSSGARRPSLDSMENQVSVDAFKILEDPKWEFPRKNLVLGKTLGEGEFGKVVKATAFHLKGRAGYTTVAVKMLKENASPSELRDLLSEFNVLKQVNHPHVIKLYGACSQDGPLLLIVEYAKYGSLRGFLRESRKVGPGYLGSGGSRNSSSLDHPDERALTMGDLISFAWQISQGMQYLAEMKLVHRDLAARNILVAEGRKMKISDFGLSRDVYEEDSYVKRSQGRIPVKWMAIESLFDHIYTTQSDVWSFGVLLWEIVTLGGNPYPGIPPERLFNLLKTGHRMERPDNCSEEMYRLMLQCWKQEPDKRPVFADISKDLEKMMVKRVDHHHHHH

Kit = target: T3, Kit (Homo sapiens, UniProt P10721); test: AlphaScreen kinase assay, Kit; conditions: read-out: IC50, activity toward kinase Kit
T3 construct: P1332.N6 BI PTP KIT M552-K948-X COD; His6 (N); made in house; host or cells: E. coli (PTP1B co-expressed)
T3 sequence (P10721 with tags, fused parts or gaps): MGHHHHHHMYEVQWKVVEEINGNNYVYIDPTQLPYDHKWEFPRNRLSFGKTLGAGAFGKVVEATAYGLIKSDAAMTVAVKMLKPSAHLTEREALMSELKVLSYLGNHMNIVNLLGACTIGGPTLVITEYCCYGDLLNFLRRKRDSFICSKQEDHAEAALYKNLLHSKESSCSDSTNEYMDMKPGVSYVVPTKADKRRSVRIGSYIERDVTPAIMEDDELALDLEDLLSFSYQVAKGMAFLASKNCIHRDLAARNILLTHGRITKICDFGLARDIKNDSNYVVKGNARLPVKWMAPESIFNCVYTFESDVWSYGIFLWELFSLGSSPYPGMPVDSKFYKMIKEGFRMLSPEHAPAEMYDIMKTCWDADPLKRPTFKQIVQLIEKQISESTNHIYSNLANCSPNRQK

FGFR1 = target: T4, FGFR1 (Homo sapiens, UniProt P11362, C488A/C584S); test: AlphaScreen kinase assay, FGFR1; conditions: read-out: IC50, activity toward kinase FGFR
T4 construct: P1351.pET N6 BI-PTP FGFR A458-E765-X C488A, C584S; made in house; host or cells: E. coli (PTP1B co-expressed)
T4 sequence (P11362 458-765 C488A/C584S): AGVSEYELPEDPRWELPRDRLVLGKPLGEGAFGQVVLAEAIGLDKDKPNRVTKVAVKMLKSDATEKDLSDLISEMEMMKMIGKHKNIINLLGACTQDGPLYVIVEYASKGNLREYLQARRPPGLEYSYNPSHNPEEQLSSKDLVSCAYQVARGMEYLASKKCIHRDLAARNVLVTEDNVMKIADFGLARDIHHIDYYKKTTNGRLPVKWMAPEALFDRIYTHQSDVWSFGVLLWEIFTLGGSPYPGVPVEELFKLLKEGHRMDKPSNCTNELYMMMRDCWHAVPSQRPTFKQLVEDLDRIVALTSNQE

T1 sequence (P15056 with tags, fused parts or gaps V600E): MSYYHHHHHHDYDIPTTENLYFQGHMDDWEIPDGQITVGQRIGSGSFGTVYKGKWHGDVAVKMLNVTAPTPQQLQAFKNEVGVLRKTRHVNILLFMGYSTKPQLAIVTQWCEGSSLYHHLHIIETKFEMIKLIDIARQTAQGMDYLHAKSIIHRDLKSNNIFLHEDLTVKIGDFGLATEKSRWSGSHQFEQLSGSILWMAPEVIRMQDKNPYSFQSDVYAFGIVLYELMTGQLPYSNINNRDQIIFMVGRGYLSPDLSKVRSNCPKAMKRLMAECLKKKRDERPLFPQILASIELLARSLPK

| Structure (SMILES) | IC50 (B-Raf V600E) | IC50 (Ret) | IC50 (Kit) | IC50 (FGFR1) |
| --- | --- | --- | --- | --- |
| Cc1cc(C(=O)c2c[nH]c3nccc(-c4ccc(C(N)=O)cc4)c23)no1 [Compound P-1007] | ≤ 10 µM | ≤ 10 µM | – | – |
| O=C(c1cccc(Cl)c1Cl)c1c[nH]c2nccc(-c3ccsc3)c12 [Compound P-0347] | ≤ 10 µM | ≤ 10 µM | – | – |
| O=C(c1cc(F)ccc1F)c1c[nH]c2nccc(-c3ccc(Cl)cc3)c12 [Compound P-0638] | ≤ 10 µM | ≤ 10 µM | – | – |
| Cc1cc(C(=O)c2c[nH]c3nccc(-c4cccc(NS(C)(=O)=O)c4)c23)no1 [Compound P-1025] | ≤ 10 µM | ≤ 10 µM | – | – |
| O=C(c1ccc(Cl)cc1)c1c[nH]c2ncc(Br)cc12 [Compound P-1033] | – | ≤ 10 µM | ≤ 10 µM | – |
| Cc1cc(C(=O)c2c[nH]c3ncc(-c4cccc(/C=C/C(=O)O)c4)cc23)no1 [Compound P-1072] | – | ≤ 10 µM | – | – |
| COc1cccc(C(=O)c2c[nH]c3nccc(-c4ccc(Cl)cc4)c23)c1 [Compound P-1191] | – | ≤ 10 µM | – | – |
| Cc1ccc(F)cc1C(=O)c1c[nH]c2nccc(-c3cccc(C(N)=O)c3)c12 [Compound P-0976] | ≤ 10 µM | ≤ 10 µM | – | ≤ 10 µM |
| COc1ccc(-c2ccnc3[nH]cc(C(=O)c4ccccc4F)c23)cn1 [Compound P-0245] | – | ≤ 10 µM | – | – |
| [O-][S+](c1ccccc1)c1c[nH]c2ncc(Br)cc12 (stereo not drawn) [Compound P-1097] | – | ≤ 10 µM | – | – |
| Cc1cc(C(=O)c2c[nH]c3nccc(-c4ccsc4)c23)no1 [Compound P-1026] | ≤ 10 µM | ≤ 10 µM | – | – |
| O=C(c1ccccc1)c1c[nH]c2ncc(Br)c([N+](=O)[O-])c12 [Compound P-0736] | – | ≤ 10 µM | ≤ 10 µM | – |
| O=C(c1c(F)cccc1F)c1c[nH]c2nccc(-c3cc(F)cc(F)c3)c12 [Compound P-0344] | ≤ 10 µM | ≤ 10 µM | – | ≤ 10 µM |
| CS(=O)(=O)Nc1ccc(F)c(C(=O)c2c[nH]c3ncccc23)c1 [Compound P-0881] | – | ≤ 10 µM | – | – |
| CC(=O)Nc1cccc(-c2ccnc3[nH]cc(C(=O)c4cc(F)ccc4C)c23)c1 [Compound P-1126] | – | ≤ 10 µM | – | – |
| Fc1cnc(F)c(F)c1Cc1c[nH]c2ncc(-c3ccsc3)cc12 [Compound P-0596] | – | ≤ 10 µM | – | – |
| Cc1cc(C(=O)c2c[nH]c3nccc(-c4ccc(Cl)cc4)c23)no1 [Compound P-1178] | – | ≤ 10 µM | – | – |
| Cc1ccccc1C(=O)c1c[nH]c2nccc(-c3cccc(S(C)(=O)=O)c3)c12 [Compound P-1200] | – | ≤ 10 µM | – | – |
| O=C(c1cc(F)ccc1F)c1c[nH]c2ncc(-c3ccsc3)cc12 [Compound P-0699] | – | ≤ 10 µM | ≤ 10 µM | ≤ 10 µM |
| CS(=O)(=O)Nc1cccc(-c2ccnc3[nH]cc(C(=O)c4ccc(Cl)cc4)c23)c1 [Compound P-0678] | – | ≤ 10 µM | – | – |
| COc1cccc(C(=O)c2c[nH]c3nccc(-c4cccc(NS(C)(=O)=O)c4)c23)c1 [Compound P-1185] | – | ≤ 10 µM | – | – |

| Structure (SMILES) | IC50 (B-Raf V600E) | IC50 (Ret) | IC50 (Kit) | IC50 (FGFR1) |
| --- | --- | --- | --- | --- |
| COc1cccc(Cc2c[nH]c3nccc(-c4ccsc4)c23)n1 [Compound P-0810] | ≤ 10 µM | ≤ 10 µM | ≤ 10 µM | – |
| O=S(=O)(NCc1c[nH]c2ncccc12)C(F)(F)F [Compound P-0412] | – | ≤ 10 µM | – | – |
| O=C(c1cccc(Cl)c1Cl)c1c[nH]c2nccc(-c3ccc(Cl)cc3)c12 [Compound P-1130] | – | ≤ 10 µM | – | – |
| COc1cccc(C(=O)c2c[nH]c3nccc(-c4cccc(NC(C)=O)c4)c23)c1 [Compound P-0363] | – | ≤ 10 µM | – | ≤ 10 µM |
| COc1cccc(C(=O)c2c[nH]c3nccc(-c4ccsc4)c23)c1 [Compound P-1188] | – | ≤ 10 µM | – | ≤ 10 µM |
| Cc1ccc(F)cc1C(=O)c1c[nH]c2nccc(-c3cccnc3)c12 [Compound P-1121] | – | ≤ 10 µM | – | – |
| Cc1ccc(F)cc1C(=O)c1c[nH]c2nccc(-c3cccc(/C=C/C(=O)O)c3)c12 [Compound P-0985] | – | ≤ 10 µM | – | – |
| Cc1cc(C(=O)c2c[nH]c3nccc(-c4cccnc4)c23)no1 [Compound P-1029] | ≤ 10 µM | ≤ 10 µM | – | – |
| Cc1cc(C(=O)c2c[nH]c3ncc(-c4cccc(NS(C)(=O)=O)c4)cc23)n(C)n1 [Compound P-0825] | – | ≤ 10 µM | ≤ 10 µM | – |
| Clc1ccc(Cc2c[nH]c3ncc(-c4ccsc4)cc23)cn1 [Compound P-0385] | – | ≤ 10 µM | ≤ 10 µM | ≤ 10 µM |
| Cc1cc(C(=O)c2c[nH]c3ncc(-c4cccc(/C=C/C(=O)O)c4)cc23)nn1C [Compound P-1137] | – | ≤ 10 µM | – | – |
| Cc1cc(C(=O)c2c[nH]c3nccc(-c4ccc(Cl)cc4)c23)n(C)n1 [Compound P-1196] | – | ≤ 10 µM | – | – |
| Cc1cc(C(=O)c2c[nH]c3ncc(-c4cccnc4)cc23)no1 [Compound P-0826] | – | ≤ 10 µM | – | ≤ 10 µM |
| Cc1c(Cl)cc(F)cc1S(=O)(=O)NCc1cc2cccnc2[nH]1 [Compound P-0533] | – | ≤ 10 µM | – | – |
| O=C(c1cc(Cl)ccc1F)c1c[nH]c2ncc(-c3cccs3)cc12 [Compound P-0644] | – | ≤ 10 µM | ≤ 10 µM | – |
| Cc1cc(C(=O)c2c[nH]c3nccc(-c4cccc(S(C)(=O)=O)c4)c23)no1 [Compound P-1031] | ≤ 10 µM | ≤ 10 µM | – | – |
| NC(=O)c1ccc(-c2cnc3[nH]cc(C(=O)c4cccc(Cl)c4Cl)c3c2)cc1 [Compound P-0977] | – | ≤ 10 µM | – | ≤ 10 µM |
| Cc1nc(-c2ccc(S(=O)(=O)NCc3c[nH]c4ncccc34)s2)cs1 [Compound P-0735] | – | ≤ 10 µM | – | – |
| O=C(c1cc(F)ccc1F)c1c[nH]c2ncc(-c3cccnc3)cc12 [Compound P-1111] | – | ≤ 10 µM | – | ≤ 10 µM |
| COc1ccc(-c2ccnc3[nH]cc(C(=O)c4cccc(O)c4)c23)cn1 [Compound P-0520] | – | ≤ 10 µM | – | ≤ 10 µM |
| COc1cccc(C(=O)c2c[nH]c3nccc(-c4cccnc4)c23)c1 [Compound P-1117] | ≤ 10 µM | ≤ 10 µM | – | – |

| Structure (SMILES) | IC50 (B-Raf V600E) | IC50 (Ret) | IC50 (Kit) | IC50 (FGFR1) |
| --- | --- | --- | --- | --- |
| CC(=O)Nc1cccc(-c2ccnc3[nH]cc(C(=O)c4cc(C)on4)c23)c1 [Compound P-1085] | ≤ 10 µM | ≤ 10 µM | – | – |
| O=C(c1ccccc1)c1c[nH]c2nccc([N+](=O)[O-])c12 [Compound P-0246] | ≤ 10 µM | ≤ 10 µM | – | ≤ 10 µM |
| CS(=O)(=O)Nc1cccc(-c2ccnc3[nH]cc(C(=O)c4cccc(Cl)c4Cl)c23)c1 [Compound P-0231] | ≤ 10 µM | ≤ 10 µM | – | – |
| COc1ccc(-c2ccnc3[nH]cc(C(=O)c4cc(F)ccc4C)c23)cn1 [Compound P-1192] | – | ≤ 10 µM | – | – |
| COc1cccc(Cc2c[nH]c3ncc(-c4ccsc4)cc23)c1 [Compound P-0392] | – | ≤ 10 µM | ≤ 10 µM | ≤ 10 µM |
| Cc1ccc(F)cc1C(=O)c1c[nH]c2nccc(-c3ccsc3)c12 [Compound P-1189] | – | ≤ 10 µM | – | – |
| O=C(c1cccc(Cl)c1Cl)c1c[nH]c2nccc(Cl)c12 [Compound P-0232] | – | ≤ 10 µM | – | ≤ 10 µM |
| Cc1ccc(F)cc1C(=O)c1c[nH]c2nccc(-c3cccc(S(C)(=O)=O)c3)c12 [Compound P-1129] | – | ≤ 10 µM | – | – |
| Cc1ccc(F)cc1C(=O)c1c[nH]c2nccc(-c3ccc(C(N)=O)cc3)c12 [Compound P-1024] | ≤ 10 µM | ≤ 10 µM | – | – |
| Cc1ccc(F)cc1C(=O)c1c[nH]c2nccc(-c3cccc(N)c3)c12 [Compound P-1135] | – | ≤ 10 µM | – | – |
| Cc1ccc(F)cc1C(=O)c1c[nH]c2nccc(-c3ccc(Cl)cc3)c12 [Compound P-1133] | – | ≤ 10 µM | – | – |
| COc1cccc(C(=O)c2c[nH]c3nccc(-c4cccc(/C=C/C(=O)O)c4)c23)c1 [Compound P-1066] | – | ≤ 10 µM | – | ≤ 10 µM |
| COc1cccc(C(=O)c2c[nH]c3ncc(Br)cc23)c1 [Compound P-0341] | – | ≤ 10 µM | ≤ 10 µM | ≤ 10 µM |
| CS(=O)(=O)c1cccc(-c2ccnc3[nH]cc(C(=O)c4cccc(Cl)c4Cl)c23)c1 [Compound P-1134] | – | ≤ 10 µM | – | – |
| O=C(c1ccccc1F)c1c[nH]c2nccc(-c3ccc(Cl)cc3)c12 [Compound P-0472] | ≤ 10 µM | ≤ 10 µM | – | – |
| COc1cccc(C(=O)c2c[nH]c3nccc(-c4cccc(S(C)(=O)=O)c4)c23)c1 [Compound P-1125] | – | ≤ 10 µM | – | ≤ 10 µM |
| COc1ccc(-c2ccnc3[nH]cc(C(=O)c4cc(C)on4)c23)cn1 [Compound P-1113] | ≤ 10 µM | ≤ 10 µM | – | – |
| Cc1ccccc1C(=O)c1c[nH]c2nccc(-c3ccc(Cl)cc3)c12 [Compound P-1201] | – | ≤ 10 µM | – | – |
| O=C(c1ccccc1)c1c[nH]c2ncc(-c3ccsc3)cc12 [Compound P-1193] | – | ≤ 10 µM | – | – |
| CS(=O)(=O)c1cccc(-c2ccnc3[nH]cc(C(=O)c4ccc(Cl)cc4)c23)c1 [Compound P-1198] | – | ≤ 10 µM | – | – |
| O=S(=O)(NCc1c[nH]c2ncccc12)c1cc(Br)cc(Cl)n1 [Compound P-0726] | – | ≤ 10 µM | – | – |
